According to patent publication US20170369878A1, “MICRORNA COMBINATIONS FOR ANTI-CANCER THERAPEUTICS” (Massachusetts Institute of Technology, priority 2015, published 2017):

Tested on: OVCAR8 cells and OVCAR8-ADR cells
Test: Docetaxel dose-response (MTT), resistant versus parental line
Format: cell-based, human
Settings: docetaxel three days, FIG. 13
Description: OVCAR8 cells (triangles) and OVCAR8-ADR (squares) cells (docetaxel-resistant derivative of OVCAR8) cells were treated with docetaxel at indicated doses for three days and subjected to the MTT assay. Cell viabilities were compared to the respective no drug controls. The OVCAR8-ADR cell line has a ˜3-fold higher IC50 than the parental OVCAR8 cell line. Data represent the mean±SD (n=3).
For the MTT assay, 100 μl of MTT (3-(4,5-dimethylthiazol-2-yl)-2,5-diphenyltetrazolium bromide) solution (Sigma) was added to the cell cultures in 96-well plates and incubated at 37° C. with 5% CO2 for 2 hours. Viable cells convert the soluble MTT salt to insoluble blue formazan crystals. Formazan crystals formed were dissolved with 100 μl of solubilization buffer at 37° C. The absorbance of the solubilized formazan was measured at an optical density (OD) of 570 nm (along with the reference OD at 650 nm) using a Synergy H1 Microplate Reader (BioTek). For the trypan blue exclusion assay, cells were trypsinized and stained with 0.4% trypan blue dye solution (Sigma). Viable cells were counted in four different fields of a hemacytometer under microscopy.

CC(=O)O[C@@]12CO[C@@H]1C[C@H](O)[C@@]1(C)C(=O)[C@H](O)C3=C(C)[C@@H](OC(=O)[C@H](O)[C@@H](NC(=O)OC(C)(C)C)c4ccccc4)C[C@@](O)([C@@H](OC(=O)c4ccccc4)[C@H]21)C3(C)C [docetaxel]
IC50 of OVCAR8-ADR relative to parental OVCAR8: ~3 fold
